Laboratory results from patent US20210047304A1, “Bromodomain Inhibitors” (AbbVie Inc., priority 2016, published 2021).

Biological target: BRD4 (BDI_K57-E168) (Homo sapiens, UniProt O60885)
Test: TR-FRET bromodomain binding assay, BRD4 BDI

Ki [nM] | Structure (SMILES)
> 13000 | Cc1cc(F)cc(C)c1Oc1ccc(C(C)(C)O)cc1-c1cn(C)c(=O)cc1O[C@H]1CC[C@H](N2C(=O)O[C@@H](C)C2=O)CC1 [Example 92, (5S)-3-[trans-4-({5-[2-(4-fluoro-2,6-dimethylphenoxy)-5-(2-hydroxypropan-2-yl)phenyl]-1-methyl-2-oxo-1,2-dihydropyridin-4-yl}oxy)cyclohexyl]-5-methyl-1,3-oxazolidine-2,4-dione]
> 13000 | Cc1cc(F)cc(C)c1Oc1ccc(C(C)(C)O)cc1-c1cn(C)c(=O)cc1O[C@H]1CC[C@@H](C(=O)O)CC1 [Example 75, cis-4-({5-[2-(4-fluoro-2,6-dimethylphenoxy)-5-(2-hydroxypropan-2-yl)phenyl]-1-methyl-2-oxo-1,2-dihydropyridin-4-yl}oxy)cyclohexane-1-carboxylic acid]
982 | CC(=O)N[C@H]1CC[C@H](Oc2cc(=O)n(C)cc2-c2cc(C(C)(C)O)ccc2Oc2c(C)cc(C(C)(C)O)cc2C)CC1 [Example 18, N-{trans-4-[(5-{5-(2-hydroxypropan-2-yl)-2-[4-(2-hydroxypropan-2-yl)-2,6-dimethylphenoxy]phenyl}-1-methyl-2-oxo-1,2-dihydropyridin-4-yl)oxy]cyclohexyl}acetamide]
2110 | CNC(=O)N[C@H]1CC[C@H](Oc2cc(=O)n(C)cc2-c2cc(C(C)(C)O)ccc2Oc2c(C)cc(F)cc2C)CC1 [Example 128, N-[trans-4-({5-[2-(4-fluoro-2,6-dimethylphenoxy)-5-(2-hydroxypropan-2-yl)phenyl]-1-methyl-2-oxo-1,2-dihydropyridin-4-yl}oxy)cyclohexyl]-N′-methylurea]
890 | Cc1cc(F)cc(C)c1Oc1ccc(C(C)(C)O)cc1-c1cn(C)c(=O)cc1OC1CCC(C)(N2CCCC2=O)CC1 (stereo not drawn) [Example 34, 5-[2-(4-fluoro-2,6-dimethylphenoxy)-5-(2-hydroxypropan-2-yl)phenyl]-1-methyl-4-{[trans-4-methyl-4-(2-oxopyrrolidin-1-yl)cyclohexyl]oxy}pyridin-2(1H)-one]
4170 | Cc1cc(F)cc(C)c1Oc1ccc(C(C)(C)O)cc1-c1cn(C)c(=O)cc1O[C@H]1CC[C@H](NC(=O)c2ccccc2C(=O)O)CC1 [Example 45, 2-{[trans-4-({5-[2-(4-fluoro-2,6-dimethylphenoxy)-5-(2-hydroxypropan-2-yl)phenyl]-1-methyl-2-oxo-1,2-dihydropyridin-4-yl}oxy)cyclohexyl]carbamoyl}benzoic acid]
4860 | CC(=O)N1CCC(=O)N1[C@H]1CC[C@H](Oc2cc(=O)n(C)cc2-c2cc(C(C)(C)O)ccc2Oc2c(C)cc(F)cc2C)CC1 [Example 112, 4-{[trans-4-(2-acetyl-5-oxopyrazolidin-1-yl)cyclohexyl]oxy}-5-[2-(4-fluoro-2,6-dimethylphenoxy)-5-(2-hydroxypropan-2-yl)phenyl]-1-methylpyridin-2(1H)-one]
6740 | Cc1cc(F)cc(C)c1Oc1ccc(C(C)(C)O)cc1-c1cn(C)c(=O)cc1O[C@H]1CC[C@H](N2C(=O)[C@@H](C)N(C)C2=O)CC1 [Example 81, (5R)-3-[trans-4-({5-[2-(4-fluoro-2,6-dimethylphenoxy)-5-(2-hydroxypropan-2-yl)phenyl]-1-methyl-2-oxo-1,2-dihydropyridin-4-yl}oxy)cyclohexyl]-1,5-dimethylimidazolidine-2,4-dione]
1090 | COC(=O)N[C@H]1CC[C@H](Oc2cc(=O)n(C)cc2-c2cc(C(C)(C)O)ccc2Oc2c(C)cc(C(C)(C)O)cc2C)CC1 [Example 20, methyl {trans-4-[(5-{5-(2-hydroxypropan-2-yl)-2-[4-(2-hydroxypropan-2-yl)-2,6-dimethylphenoxy]phenyl}-1-methyl-2-oxo-1,2-dihydropyridin-4-yl)oxy]cyclohexyl}carbamate]
8850 | CCN1CC(=O)N([C@H]2CC[C@H](Oc3cc(=O)n(C)cc3-c3cc(C(C)(C)O)ccc3Oc3c(C)cc(F)cc3C)CC2)C1=O [Example 127, 1-ethyl-3-[trans-4-({5-[2-(4-fluoro-2,6-dimethylphenoxy)-5-(2-hydroxypropan-2-yl)phenyl]-1-methyl-2-oxo-1,2-dihydropyridin-4-yl}oxy)cyclohexyl]imidazolidine-2,4-dione]
1910 | Cc1cc(F)cc(C)c1Oc1ccc(C(C)(C)O)cc1-c1cn(C)c(=O)cc1O[C@H]1CC[C@H](NC(=O)CC(C)(C)CO)CC1 [Example 118, N-[trans-4-({5-[2-(4-fluoro-2,6-dimethylphenoxy)-5-(2-hydroxypropan-2-yl)phenyl]-1-methyl-2-oxo-1,2-dihydropyridin-4-yl}oxy)cyclohexyl]-4-hydroxy-3,3-dimethylbutanamide]
1580 | CCNC(=O)[C@H]1C[C@@H](Oc2cc(=O)n(C)cc2-c2cc(C(C)(C)O)ccc2Oc2c(C)cc(F)cc2C)C1 [Example 95, cis-N-ethyl-3-({5-[2-(4-fluoro-2,6-dimethylphenoxy)-5-(2-hydroxypropan-2-yl)phenyl]-1-methyl-2-oxo-1,2-dihydropyridin-4-yl}oxy)cyclobutane-1-carboxamide]
940 | Cc1cc(F)cc(C)c1Oc1ccc(C(C)(C)O)cc1-c1cn(C)c(=O)cc1O[C@H]1CC[C@H](N2C(=O)N(C)C(C)(C)C2=O)CC1 [Example 142, 3-[trans-4-({5-[2-(4-fluoro-2,6-dimethylphenoxy)-5-(2-hydroxypropan-2-yl)phenyl]-1-methyl-2-oxo-1,2-dihydropyridin-4-yl}oxy)cyclohexyl]-1,5,5-trimethylimidazolidine-2,4-dione]
1270 | Cc1cccc(C)c1Oc1ccc(C(C)(C)O)cc1-c1cn(C)c(=O)cc1NC1CCN(C(=O)OC(C)(C)C)C1 (stereo not drawn) [Example 11, tert-butyl 3-({5-[2-(2,6-dimethylphenoxy)-5-(2-hydroxypropan-2-yl)phenyl]-1-methyl-2-oxo-1,2-dihydropyridin-4-yl}amino)pyrrolidine-1-carboxylate]
> 13000 | CC=C1NC(=O)N([C@H]2CC[C@H](Oc3cc(=O)n(C)cc3-c3cc(C(C)(C)O)ccc3Oc3c(C)cc(F)cc3C)CC2)C1=O [Example 133, 5-ethylidene-3-[trans-4-({5-[2-(4-fluoro-2,6-dimethylphenoxy)-5-(2-hydroxypropan-2-yl)phenyl]-1-methyl-2-oxo-1,2-dihydropyridin-4-yl}oxy)cyclohexyl]imidazolidine-2,4-dione]
1510 | Cc1cc(F)cc(C)c1Oc1ccc(C(C)(C)O)cc1-c1cn(C)c(=O)cc1O[C@H]1CC[C@H](N2C(=O)COC2=O)CC1 [Example 82, 3-[trans-4-({5-[2-(4-fluoro-2,6-dimethylphenoxy)-5-(2-hydroxypropan-2-yl)phenyl]-1-methyl-2-oxo-1,2-dihydropyridin-4-yl}oxy)cyclohexyl]-1,3-oxazolidine-2,4-dione]
2500 | Cc1cc(F)cc(C)c1Oc1ccc(C(C)(C)O)cc1-c1cn(C)c(=O)cc1O[C@H]1CC[C@H](N2CCOC2=O)CC1 [Example 38, 5-[2-(4-fluoro-2,6-dimethylphenoxy)-5-(2-hydroxypropan-2-yl)phenyl]-1-methyl-4-{[trans-4-(2-oxo-1,3-oxazolidin-3-yl)cyclohexyl]oxy}pyridin-2(1H)-one]
> 13000 | Cc1cc(F)cc(C)c1Oc1ccc(C(C)(C)O)cc1-c1cn(C)c(=O)cc1O[C@H]1CC[C@H](NC(=O)C2(C)CC2)CC1 [Example 51, N-[trans-4-({5-[2-(4-fluoro-2,6-dimethylphenoxy)-5-(2-hydroxypropan-2-yl)phenyl]-1-methyl-2-oxo-1,2-dihydropyridin-4-yl}oxy)cyclohexyl]-1-methylcyclopropane-1-carboxamide]
